Experimental data reported in publication PMC7067379, “Mapping the S1 and S1’ subsites of cysteine proteases with new dipeptidyl nitrile inhibitors as trypanocidal agents” (PLoS Neglected Tropical Diseases, 2020).
Where two headings read alike, the source gives them in different places.

Key:
cathepsin L (CatL) = cathepsin L (CatL) (Homo sapiens, UniProt P07711); test: Cathepsin L enzyme inhibition; assay type: biochemical; settings: for Ki: SD lower than 15%, read-out: pKi CatL (converted)
cathepsin B (CatB) = cathepsin B (CatB) (Homo sapiens, UniProt P07858); test: Cathepsin B enzyme inhibition; assay type: biochemical; settings: for Ki: SD lower than 15%, read-out: pKi CatB (converted)
[1] = target: T1, Human recombinant cathepsin K (Homo sapiens, UniProt P43235); test: Cathepsin K assay; assay type: biochemical; settings: for Ki: SD lower than 15%, read-out: pKi CatK (converted)
T1 sequence (P43235 115-329): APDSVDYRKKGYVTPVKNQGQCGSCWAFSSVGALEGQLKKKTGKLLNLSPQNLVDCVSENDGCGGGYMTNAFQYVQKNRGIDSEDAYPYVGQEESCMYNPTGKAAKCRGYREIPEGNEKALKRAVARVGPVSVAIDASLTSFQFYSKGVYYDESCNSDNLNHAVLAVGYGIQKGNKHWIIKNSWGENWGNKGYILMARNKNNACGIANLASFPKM
Method: Human recombinant cathepsin K was assayed on a FLUOSTAR Optima plate reader at 25 °C with an excitation wavelength of 360 nm and an emission wavelength of 440 nm on a 96 well plate. The enzyme solution (23 μg/mL in 50 mM sodium acetate pH 5.5, 50 mM NaCl, 0.5 mM EDTA, 5 mM DTT) was diluted 1:100 with assay buffer (100 mM sodium citrate buffer pH 5.0, 100 mM NaCl, 1 mM EDTA, 0.01% CHAPS) containing 5 mM DTT and was then incubated at 37 °C for 30 min for activation. A 1.5 mM stock solution of the substrate Z-Leu-Arg-AMC was prepared in DMSO. […] The assay was performed with a final concentration of cathepsin K of 1.73 ng/mL. Stock solutions of inhibitors were prepared in DMSO. The final DMSO concentration was 2% (4 μL). Into a well containing 194.5 μL assay buffer, 0.8 μL of the fluorogenic substrate, DMSO and inhibitor solution (3.2 μL) were added. Upon addition of cathepsin K (1.5 μL), the measurement was started and followed for 20 min.

[2] = Mammalian cytotoxicity assay (MTT); assay type: cell-based; settings: rhesus monkey, LLCMK2 cells;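 also: Read-out is absorbance at 570 nm of formazan taken up in DMSO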
Method: LLCMK2 cells were cultured in 96-well plates at a concentration of 5 x 10^4 cells/ml. After 48 h, the plates were washed twice with PBS and 200 μL RPMI medium was added with serial dilutions of the compounds and benznidazole (1.95 μM to 250 μM) in triplicate. After 72 h at 37 °C, the cytotoxic activity of the compounds was determined by the classical MTT [3- (4,5-dimethylthiazol-2-yl) -2,5-diphenyltetrazolium bromide] method. Briefly, 50 μL MTT dissolved in PBS (2.0 mg mL^-1) was added to each well and the plates were incubated for 4 h at 37 °C. The formed formazan crystals were dissolved with DMSO (50 μL/well) and the absorbance of the samples was measured by spectrophotometer at 570 nm after 30 min.

[3] = test system: T. cruzi Tulahuen LacZ strain, intracellular amastigote forms; test: In vitro trypanocidal activity on intracellular amastigote forms (Tulahuen strain); assay type: cell-based, Trypanosoma cruzi; settings: for EC50: Trypanosoma cruzi, TULAHUEN; for SI (selective index): from EC50 (T. cruzi) and CC50 (LLCMK2)
Method: Cells were evaluated in 96-well plates. Cells from the LLCMK2 lineage were plated at a concentration of 5x10^4 cells mL^-1. Trypomastigote forms of the Tulahuen LacZ strain were added at a concentration of 5×10^5 parasites mL^-1 and placed in the incubator at 37°C with 5% CO2 for 24 h. After the incubation period, the trypomastigote forms present were removed by successive washes with PBS, remaining only as intracellular amastigote forms. Compounds were added at different concentrations (1.95 μM to 250 μM serial dilutions) and incubated for 72 h. At the end of this period, the substrate CPRG (chlorophenol red β-D-galactopyranoside, 400 μM in 0.3% Triton X-100, pH 7.4) was added. […] Benznidazole was used as a positive control in the same concentrations as the substances, and DMSO as a negative control. Compounds were solubilized in DMSO. The selectivity index (SI) was calculated using the formula: […]. All statistical analyses were done with the program GraphPad Prism v.5.

cathepsin S (CatS) = cathepsin S (CatS) (Homo sapiens, UniProt P25774); test: Cathepsin S enzyme inhibition; assay type: biochemical; settings: for Ki: SD lower than 15%, read-out: pKi CatS (converted)
cathepsin S (CatS), sequence (P25774 115-331): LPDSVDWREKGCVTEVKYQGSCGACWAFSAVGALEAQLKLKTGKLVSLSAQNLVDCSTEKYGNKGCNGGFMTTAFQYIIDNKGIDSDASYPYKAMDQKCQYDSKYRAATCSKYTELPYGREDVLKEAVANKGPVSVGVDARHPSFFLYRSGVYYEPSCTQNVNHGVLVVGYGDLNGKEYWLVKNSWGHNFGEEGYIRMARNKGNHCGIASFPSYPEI
Method: (§1) Enzyme inhibition studies for Cz and LmCPB were performed as previously described for Cz. The experimental procedures are described in the Supporting Information (see chapter S3). Cathepsins B, L, S were assayed as reported.

recombinant cruzain (Cz) = recombinant cruzain (Cz) (Trypanosoma cruzi, UniProt P25779); test: Cruzain enzyme inhibition; assay type: biochemical; settings: for difference in pKi, Cz: relative to compound 9, sign not given, direction by cell colour or wording; for remaining activity at 10 µM: replicates = 2
recombinant cruzain (Cz), sequence (P25779 123-337): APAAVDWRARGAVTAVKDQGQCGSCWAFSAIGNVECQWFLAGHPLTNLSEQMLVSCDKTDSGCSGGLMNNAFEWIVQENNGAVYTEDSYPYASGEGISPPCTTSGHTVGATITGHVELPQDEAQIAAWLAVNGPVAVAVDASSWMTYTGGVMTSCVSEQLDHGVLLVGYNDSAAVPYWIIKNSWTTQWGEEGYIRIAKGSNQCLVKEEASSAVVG
Method: as §1

[4] = target: Leishmania mexicana CPB (LmCPB) (Leishmania mexicana, UniProt P36400); test: LmCPB enzyme inhibition; assay type: biochemical; settings: for difference in pKi, LmCPB: sign not given, direction by cell colour or wording; for remaining activity at 10 µM: replicates = 2
Leishmania mexicana CPB (LmCPB), sequence (P36400 126-443): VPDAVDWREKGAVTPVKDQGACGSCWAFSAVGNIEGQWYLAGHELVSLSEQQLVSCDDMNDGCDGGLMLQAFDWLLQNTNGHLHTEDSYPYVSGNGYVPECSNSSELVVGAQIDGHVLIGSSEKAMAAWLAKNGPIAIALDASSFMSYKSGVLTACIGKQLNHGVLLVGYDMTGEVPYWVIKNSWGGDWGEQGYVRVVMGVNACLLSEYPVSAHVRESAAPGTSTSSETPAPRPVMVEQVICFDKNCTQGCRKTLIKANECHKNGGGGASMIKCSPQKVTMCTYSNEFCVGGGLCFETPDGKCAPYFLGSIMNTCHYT
Method: as §1

[5] = LLCMK2, 72 h, MTT, Table 2, read-out: CC50 cytotoxicity
[6] = 72 h, amastigote, Tulahuen strain, 72 h, Table 2, read-out: EC50 trypanocidal activity
[7] = S1 Table, maximum concentration used 250 µM, read-out: EC50 T. cruzi
[8] = T. cruzi amastigote form, S1 Table, read-out: pEC50 (converted)
[9] = SD lower than 15%, read-out: pKi Cz (converted)
[10] = SD lower than 15%, read-out: pKi LmCPB (converted)
[11] = 10 μM, replicates = 2, n.i. = no inhibition observed at 10 μM
[12] = S1 Table, maximum concentration used 250 µM, read-out: CC50
[13] = amastigote forms of T. cruzi (Tuhaluen strain), Figs 12-14, unit inferred, read-out: EC50

cathepsin L (CatL), sequence (P07711 114-333): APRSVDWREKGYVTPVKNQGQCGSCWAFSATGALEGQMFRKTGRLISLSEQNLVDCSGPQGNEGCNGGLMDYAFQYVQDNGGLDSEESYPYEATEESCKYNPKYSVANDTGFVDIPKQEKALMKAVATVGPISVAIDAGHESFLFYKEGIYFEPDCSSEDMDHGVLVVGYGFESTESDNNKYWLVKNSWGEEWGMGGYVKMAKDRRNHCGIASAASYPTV

Compound	Ki (cathepsin L (CatL))	Ki (cathepsin B (CatB))	Ki [1]	CC50 at 72 h [2, 5]	EC50 [3, 6]	EC50 [3, 7]	EC50 [3, 8]	SI (selective index) ([3]; Table 2)	melting point	Ki (cathepsin S (CatS))	Ki (recombinant cruzain (Cz); [9])	difference in pKi, Cz (recombinant cruzain (Cz))	Ki [4, 10]	CC50 at 72 h [2, 12]	other results
Cn1nc(C(C)(C)C)cc1C(=O)N[C@@H](Cc1ccccc1)C(=O)N[C@H](C#N)Cc1ccccc1 [Compound 50, 3-(tert-Butyl)-N-((S)-1-(((S)-1-cyano-2-phenylethyl)amino)-1-oxo-3-phenylpropan-2-yl)-1-methyl-1H-pyrazole-5-carboxamide]	0.00316 µM	31.6 µM	0.501 µM	83.1 ± 6.85 µM	63.3 ± 5.74 µM	63.5 µM	63.1 µM	1.31	89 to 90 °C	0.0501 µM	0.02 µM	0.4	0.0158 µM	–	difference in pKi, CatB (cathepsin B (CatB); relative to compound 9, sign not given, direction by cell colour or wording): 0.3; difference in pKi, LmCPB ([4]; relative to compound 9): 0.7
Cn1nc(C(C)(C)C)cc1C(=O)N[C@@H](Cc1ccccc1)C(=O)N[C@@H](C#N)Cc1ccccc1 [Compound 51, 3-(tert-Butyl)-N-((S)-1-(((R)-1-cyano-2-phenylethyl)amino)-1-oxo-3-phenylpropan-2-yl)-1-methyl-1H-pyrazole-5-carboxamide]	0.126 µM	–	2.51 µM	42.3 ± 3.94 µM	8.6 ± 0.53 µM	–	7.94 µM	4.9	98 to 99 °C	1.26 µM	0.501 µM	–	0.794 µM	42.3 µM	remaining activity at 10 µM (cathepsin B (CatB); [11]): 94%
CC(C)C[C@@H](C#N)NC(=O)[C@H](Cc1ccccc1)NC(=O)c1cc(C(C)(C)C)nn1C [Compound 52, 3-(tert-Butyl)-N-((S)-1-(((S)-1-cyano-3-methylbutyl)amino)-1-oxo-3-phenylpropan-2-yl)-1-methyl-1H-pyrazole-5-carboxamide]	0.00501 µM	7.94 µM	0.2 µM	97.9 ± 6.52 µM	4.1 ± 0.47 µM	–	3.98 µM	–	81 to 82 °C	0.126 µM	0.0316 µM	–	0.0398 µM	–	fold increase in trypanocidal potency ([3]; compared with compound 9): 17.5 fold
Cn1nc(C(C)(C)C)cc1C(=O)N[C@@H](Cc1ccccc1)C(=O)N[C@H](C#N)Cc1cccc(Cl)c1 [Compound 54, 3-(tert-Butyl)-N-((S)-1-(((S)-2-(3-chlorophenyl)-1-cyanoethyl)amino)-1-oxo-3-phenylpropan-2-yl)-1-methyl-1H-pyrazole-5-carboxamide]	0.00501 µM	12.6 µM	0.501 µM	44.7 ± 5.24 µM	15.8 ± 1.43 µM	–	15.8 µM	2.83	132 to 133 °C	0.0794 µM	–	–	–	–	Ki (recombinant cruzain (Cz)): 0.0316 µM; Ki [4]: 0.0316 µM
C[C@@H](OCc1ccccc1)[C@@H](C#N)NC(=O)[C@H](Cc1ccccc1)NC(=O)c1cc(C(C)(C)C)nn1C [Compound 56, N-((S)-1-(((1R,2R)-2-(Benzyloxy)-1-cyanopropyl)amino)-1-oxo-3-phenylpropan-2-yl)-3-(tert-butyl)-1-methyl-1H-pyrazole-5-carboxamide]	0.1 µM	6.31 µM	2 µM	–	–	> 100 µM	> 100 µM	–	115 to 116 °C	1 µM	0.501 µM	-1.0	0.316 µM	> 100 µM	EC50 ([3]; amastigote forms of T. cruzi (Tuhaluen strain), Figs 12-14, unit inferred): > 100 µM
CC(C)C[C@H](NC(=O)c1cc(C(C)(C)C)nn1C)C(=O)N[C@H](C#N)[C@@H](C)OCc1ccccc1 [Compound 58, N-((S)-1-(((1R,2R)-2-(Benzyloxy)-1-cyanopropyl)amino)-4-methyl-1-oxopentan-2-yl)-3-(tert-butyl)-1-methyl-1H-pyrazole-5-carboxamide]	0.0631 µM	7.94 µM	0.0158 µM	–	–	> 100 µM	> 100 µM	–	96 to 97 °C	0.0501 µM	0.0126 µM	0.6	0.02 µM	> 100 µM	EC50 [3, 13]: > 100 µM; difference in pKi, LmCPB ([4]; relative to compound 11): 0.4
CC(C)C[C@H](NC(=O)c1cc(C(C)(C)C)nn1C)C(=O)N[C@@H](C#N)[C@H](C)OCc1ccccc1 [Compound 59, N-((S)-1-(((1S,2S)-2-(Benzyloxy)-1-cyanopropyl)amino)-4-methyl-1-oxopentan-2-yl)-3-(tert-butyl)-1-methyl-1H-pyrazole-5-carboxamide]	–	–	–	–	–	> 100 µM	> 100 µM	–	110 to 111 °C	–	–	–	–	> 100 µM	remaining activity at 10 µM (cathepsin L (CatL); [11]): 90%; remaining activity (%) at 10 μM, CatB (cathepsin B (CatB); [11]): n.i.^c; remaining activity (%) at 10 μM, CatK [1, 11]: n.i.^c; EC50 [3, 13]: > 100 µM; remaining activity at 10 µM (cathepsin S (CatS); [11]): 85%; remaining activity at 10 µM (recombinant cruzain (Cz)): 60%; remaining activity at 10 µM [4]: 75%
C[C@@H](O)[C@@H](C#N)NC(=O)[C@H](Cc1ccccc1)NC(=O)c1cc(C(C)(C)C)nn1C [Compound 65, 3-(tert-Butyl)-N-((S)-1-(((1R,2R)-1-cyano-2-hydroxypropyl)amino)-1-oxo-3-phenylpropan-2-yl)-1-methyl-1H-pyrazole-5-carboxamide]	5.01 µM	–	–	> 100 µM	70.8 ± 8.79 µM	–	79.4 µM	> 1.4	159 to 160 °C	5.01 µM	–	–	–	–	remaining activity at 10 µM (cathepsin B (CatB); [11]): 92%; remaining activity at 10 µM ([1]; 10 μM, replicates = 2, n.i. = no inhibition observed at 10 μM, read-out: remaining activity (%) at 10 μM, CatK): 86%; remaining activity at 10 µM (recombinant cruzain (Cz)): 68%; remaining activity at 10 µM [4]: 69%
